Measurements as given in patent publication US6974870B2, “Substituted 3-amino-thieno [2,3-b]pyridine-2-carboxylic acid amide compounds and processes for preparing and their uses” (Boehringer Ingelheim Phamaceuticals, Inc., priority 2002, dated 2005).

Columns and labels:
human IKKβ = target: T1, human IKKβ (Homo sapiens, UniProt O14920); experiment: IKKβ kinase inhibition assay (phosphorylation of IκBα substrate, 33P-ATP); format: biochemical; conditions: flag-tagged human IKKβ 0.9 μg/ml, GST-IκBα (1-54) 53 μg/ml, 250 nM ATP, 1 hour at 25° C.
T1 construct: FLAG (N)
T1 sequence (O14920 1-756): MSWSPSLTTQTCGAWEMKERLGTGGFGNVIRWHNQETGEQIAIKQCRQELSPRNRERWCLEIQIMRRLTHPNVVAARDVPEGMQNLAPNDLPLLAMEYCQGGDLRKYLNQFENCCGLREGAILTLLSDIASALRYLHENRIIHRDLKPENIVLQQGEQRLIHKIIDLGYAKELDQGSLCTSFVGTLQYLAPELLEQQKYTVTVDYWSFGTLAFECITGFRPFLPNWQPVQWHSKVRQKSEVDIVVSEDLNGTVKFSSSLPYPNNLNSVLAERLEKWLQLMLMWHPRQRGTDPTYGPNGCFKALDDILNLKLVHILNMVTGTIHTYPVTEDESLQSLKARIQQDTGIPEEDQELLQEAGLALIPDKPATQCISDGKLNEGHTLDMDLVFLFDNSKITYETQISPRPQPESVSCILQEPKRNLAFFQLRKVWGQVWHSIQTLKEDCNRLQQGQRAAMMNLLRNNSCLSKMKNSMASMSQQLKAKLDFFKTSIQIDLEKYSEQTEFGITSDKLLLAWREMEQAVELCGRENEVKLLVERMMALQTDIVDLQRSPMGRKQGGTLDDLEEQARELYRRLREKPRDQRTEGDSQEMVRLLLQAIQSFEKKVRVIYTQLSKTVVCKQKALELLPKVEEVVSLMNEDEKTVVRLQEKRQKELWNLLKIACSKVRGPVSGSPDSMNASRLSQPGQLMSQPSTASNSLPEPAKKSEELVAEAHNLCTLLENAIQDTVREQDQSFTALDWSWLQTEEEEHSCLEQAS
Summary of the method: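 N-terminally Flag-tagged human IKKα (3.6 μg/ml) or IKKβ (0.9 μg/ml) phosphorylating GST-IκBα(1-54) (245 or 53 μg/ml respectively), 250 nM ATP plus [33P]ATP, pH 7.5 HEPES with Mg2+/Mn2+, 2% DMSO; 5 min compound preincubation, 1 h at 25 °C.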

human IKKα = target: T2, human IKKα (Homo sapiens, UniProt O15111); experiment: IKKα kinase inhibition assay (phosphorylation of IκBα substrate, 33P-ATP); format: biochemical; conditions: flag-tagged human IKKα 3.6 μg/ml, GST-IκBα (1-54) 245 μg/ml, 250 nM ATP, 1 hour at 25° C.
T2 construct: FLAG (N)
T2 sequence (O15111 1-745): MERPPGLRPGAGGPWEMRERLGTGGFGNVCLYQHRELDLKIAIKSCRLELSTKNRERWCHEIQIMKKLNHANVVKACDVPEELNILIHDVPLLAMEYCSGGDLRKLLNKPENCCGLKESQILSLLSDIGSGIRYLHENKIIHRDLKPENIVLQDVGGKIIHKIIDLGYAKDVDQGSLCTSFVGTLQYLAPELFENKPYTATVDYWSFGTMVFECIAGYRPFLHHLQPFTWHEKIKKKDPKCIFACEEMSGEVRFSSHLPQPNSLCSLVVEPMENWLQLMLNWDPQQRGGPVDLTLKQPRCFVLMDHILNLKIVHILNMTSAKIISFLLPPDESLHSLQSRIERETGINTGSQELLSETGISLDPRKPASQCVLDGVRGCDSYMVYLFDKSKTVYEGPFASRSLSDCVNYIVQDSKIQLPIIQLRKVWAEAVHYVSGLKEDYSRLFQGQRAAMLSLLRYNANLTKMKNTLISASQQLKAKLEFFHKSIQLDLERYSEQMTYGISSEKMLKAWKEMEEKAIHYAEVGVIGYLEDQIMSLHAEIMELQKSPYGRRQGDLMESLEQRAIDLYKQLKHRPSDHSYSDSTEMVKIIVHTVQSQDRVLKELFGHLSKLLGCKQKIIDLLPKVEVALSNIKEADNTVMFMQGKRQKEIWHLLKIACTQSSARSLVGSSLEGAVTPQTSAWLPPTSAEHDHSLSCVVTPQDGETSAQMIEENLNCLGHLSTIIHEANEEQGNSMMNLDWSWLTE
Description: The inhibition of IKKα and IKKβ by the compounds of the present invention was determined with the following assay that measures the phosphorylation of the IκBα substrate by the respective kinases. The enzymes used in the assay were N-terminally flag-tagged versions of the human IKKβ or IKKα and the substrate was a GST fusion protein with IκBα (amino acids 1-54).
The reaction mixtures (60 μl) contained 20 mM HEPES pH 7.5, 10 mM MgCl2, 2 mM MnCl2, 100 mM NaCl, 100 μM Na3VO4, 20 mM β-glycerophosphate, 1 mM DTT, 2% DMSO, 250 nM ATP, 0.4 nM [^33P]ATP (specific activity, 3000 Ci/mmol), IκBα substrate, IKK enzyme and test compound. The reaction mixtures contained either 3.6 μg/ml IKKα and 245 μg/ml IκBα or 0.9 μg/ml IKKβ and 53 μg/ml IκBα.
Reactions were initiated by adding a solution of IκBα substrate and ATP to polypropylene plates containing IKK enzyme that was pre-incubated for 5 minutes with test compound. Then the reaction mixtures were incubated for 1 hour at 25° C., placed on ice and quenched by the addition of 150 μl 10% trichloroacetic acid and 5% disodium pyrophosphate. After mixing, the entire contents of the quenched reaction mixtures were transferred to a pre-wetted Packard UniFilter filtration plate, aspirated and washed 6 times with 250 μl of ddH2O using the Packard Filtermate Harvester. Filtration plates were then air dried, supplemented with 40 μl of Microscint 20 scintillation fluid and the ^33P-labeled reaction products were quantified using the Packard TopCount scintillation counter.
Compounds were tested in three-fold serial dilutions and inhibitor concentrations to achieve 50% inhibition of enzyme activity (i.e., IC50) were derived from dose-reponse curves using SAS software (SAS Institute, Cary N.C.). A non-linear regression analysis based on the Hill equation was applied to the percent inhibition versus concentration data. In all cases, compound concentrations were verified by HPLC.

Row | Structure (SMILES) | IC50 (human IKKβ) [µM] | IC50 (human IKKα) [µM] | melting point [°C]
1 | CCCc1cc(N2CCC(NCC(=O)N3CCC(O)CC3)CC2)nc2sc(C(N)=O)c(N)c12 [3-Amino-6-{4-[2-(4-hydroxy-piperidin-1-yl)-2-oxo-ethylamino]-piperidin-1-yl}-4-propyl-thieno[2,3-b] pyridine-2-carboxylic acid amide] | < 1 | ≤ 10 | 
2 | CCCc1cc(N2CCC(NC3CC3)CC2)nc2sc(C(N)=O)c(N)c12 [3-Amino-6-(4-cyclopropylamino-piperidin-1-yl)-4-propyl-thieno[2,3-b] pyridine-2-carboxylic acid amide] | < 1 | ≤ 10 | 
3 | CNC(=O)c1cc(N2CCC(N)CC2)nc2sc(C(N)=O)c(N)c12 [3-Amino-6-(4-amino-piperidin-1-yl)-thieno[2,3-b]pyridine-2,4-dicarboxylic acid 2-amide 4-methylamide] | < 1 | ≤ 10 | 
4 | CC(C)c1cc(N2CCC(N)CC2)nc2sc(C(N)=O)c(N)c12 [3-Amino-6-(4-amino-piperidin-1-yl)-4-isopropyl-thieno[2,3-b] pyridine-2-carboxylic acid amide] | < 1 | ≤ 10 | 
5 | NC(=O)c1sc2nc(N3CCC(NCC(O)c4ccc(-c5nccs5)cc4)CC3)cc(C(F)(F)F)c2c1N (centres unmarked) [3-Amino-6-{4-[2-hydroxy-2-(4-thiazol-2-yl-phenyl)-ethylamino]-piperidin-1-yl}-4-trifluoromethyl-thieno[2,3-b]pyridine-2-carboxylic acid amide] | < 1 | ≤ 10 | 
6 | CCCc1cc(N2CCC(NCC(O)c3ccc(-n4ccnc4)cc3)CC2)nc2sc(C(N)=O)c(N)c12 (centres unmarked) [3-Amino-6-{4-[2-hydroxy-2-(4-imidazol-1-yl-phenyl)-ethylamino]-piperidin-1-yl}-4-propyl-thieno[2,3-b] pyridine-2-carboxylic acid amide] | < 1 | ≤ 10 | 
7 | CCCc1cc(N2CCC(NCC(O)c3ccc(NS(C)(=O)=O)cc3)CC2)nc2sc(C(N)=O)c(N)c12 (centres unmarked) [Example 12, 3-Amino-6-{4-[2-hydroxy-2-(4-methanesulfonylamino-phenyl)-ethylamino)-piperidin-1-yl]-4-propyl-thieno[2,3-b]pyridine-2-carboxylic acid amide] |  |  | 199 to 200
8 | Cc1cc(N2CCC(N)CC2)nc2sc(C(N)=O)c(N)c12 [3-Amino-6-(4-amino-piperidin-1-yl)-4-methyl-thieno[2,3-b] pyridine-2-carboxylic acid amide] | < 1 | ≤ 10 | 
9 | CNC1CCN(c2cc(C(F)(F)F)c3c(N)c(C(N)=O)sc3n2)CC1 [3-Amino-6-(4-methylamino-piperidin-1-yl)-4-trifluoromethyl-thieno[2,3-b]pyridine-2-carboxylic acid amide] | < 1 | ≤ 10 | 
10 | COC(=O)c1ccc(/C=C/c2cc(N3CCC(N)CC3)nc3sc(C(N)=O)c(N)c23)cc1 [4-{(E)-2-[3-Amino-6-(4-amino-piperidin-1-yl)-2-carbamoyl-thieno[2,3-b]pyridin-4-yl]-vinyl}-benzoic acid methyl ester] | < 1 | ≤ 10 | 
11 | CCCc1cc(N2CCC(NCC(=O)O)CC2)nc2sc(C(N)=O)c(N)c12 [[1-(3-Amino-2-carbamoyl-4-propyl-thieno[2,3-b]pyridin-6-yl)-piperidin-4-ylamino]-acetic acid] | < 1 | ≤ 10 | 
12 | CNC1CCN(c2cc(OCC(F)(F)F)c3c(N)c(C(N)=O)sc3n2)CC1 [3-Amino-6-(4-methylamino-piperidin-1-yl)-4-(2,2,2-trifluoro-ethoxy)-thieno[2,3-b]pyridine-2-carboxylic acid amide] | < 1 | ≤ 10 | 
13 | CCCc1cc(N2CCC(NCC(O)c3ccc(-c4cccnc4)cc3)CC2)nc2sc(C(N)=O)c(N)c12 (centres unmarked) [3-Amino-6-{4-[2-hydroxy-2-(4-pyridin-3-yl-phenyl)-ethylamino]-piperidin-1-yl}-4-propyl-thieno[2,3-b] pyridine-2-carboxylic acid amide] | < 1 | ≤ 10 | 
14 | CCCc1cc(N2CCC(NCC(=O)Nc3cccc4ccccc34)CC2)nc2sc(C(N)=O)c(N)c12 [3-Amino-6-{4-[(naphthalen-1-ylcarbamoylmethyl)-amino]-piperidin-1-yl}-4-propyl-thieno[2,3-b] pyridine-2-carboxylic acid amide] | < 1 | ≤ 10 | 
15 | NC(=O)c1sc2nc(N3CCC(N)CC3)cc(C3CC3)c2c1N [3-Amino-6-(4-amino-piperidin-1-yl)-4-cyclopropyl-thieno[2,3-b] pyridine-2-carboxylic acid amide] | < 1 | ≤ 10 | 
